Reference: article PMC11775015, “Parishin B blocking TRIB3-AKT1 interaction inhibits breast cancer lung metastasis” (Frontiers in Pharmacology, 2025)

Biological target: T1, TRIB3 (Tribbles homolog 3) (Homo sapiens, UniProt Q96RU7)
T1 construct: endogenous untagged full-length protein in RIPA lysate of MDA-MB-231 cells, detected by Western blot (anti-TRIB3 Abcam ab75846); NP_066981.2 printed for the homology model
T1 sequence (Q96RU7 1-358): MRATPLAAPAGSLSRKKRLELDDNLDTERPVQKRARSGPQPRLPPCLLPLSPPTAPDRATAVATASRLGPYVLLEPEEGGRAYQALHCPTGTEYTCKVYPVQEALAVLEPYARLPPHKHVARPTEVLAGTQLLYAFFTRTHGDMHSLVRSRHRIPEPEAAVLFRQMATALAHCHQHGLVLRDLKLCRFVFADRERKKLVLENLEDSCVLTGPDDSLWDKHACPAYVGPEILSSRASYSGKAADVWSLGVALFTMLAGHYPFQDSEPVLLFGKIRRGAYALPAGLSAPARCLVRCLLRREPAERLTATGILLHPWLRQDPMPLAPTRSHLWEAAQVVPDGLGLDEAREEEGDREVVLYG
Assay: CETSA (cell lysate, Western blot)
Type: biochemical
Conditions: 10 uM PB, 1 h, MDA-MB-231 RIPA lysate; 35-60 C for 10 min

O=C(O)CC(O)(CC(=O)OCc1ccc(O[C@@H]2O[C@H](CO)[C@@H](O)[C@H](O)[C@H]2O)cc1)C(=O)OCc1ccc(O[C@@H]2O[C@H](CO)[C@@H](O)[C@H](O)[C@H]2O)cc1 (stereo partly shown) [PB, Parishin B]
CETSA (cell lysate, Western blot): PB enhances the thermal stability of TRIB3, resulting in improved thermal stabilization of TRIB3
